Converted amounts (≈) assume the structure as drawn.

The values that follow come from publication PMC10758931 (RSC Advances, 2024).

One data set relates to MCF-7 cell line. The data set is described as follows: Cytotoxic activity. It is filed as cell-based. The following applies: for CC50: Homo sapiens, MCF7, read-out: LC50, MCF-7 cell line; for SI (Selectivity index = LC50 value normal cell/LC50 value cancer cell): Vero / MCF-7.
In the next data set the test system is normal Vero cell line. Nature of the data set: Cytotoxic activity. It is filed as cell-based. Particulars: MTT, mean ± standard error of three experiments.

`Cc1nn(-c2ccccc2)c2c1C(c1ccc(Cl)cc1)N(C(=O)c1ccncc1)N2` (stereo not drawn) [Compound 1b]: in the data set on MCF-7 cell line, the CC50 was 22.1 ± 0.04 µg/mL (≈ 53.1 µM) and the “SI (Selectivity index = LC50 value normal cell/LC50 value cancer cell)” value is 2.95.

For the compound `Cc1nn(-c2ccccc2)c2c1C(c1ccc(O)cc1)N(C(=O)c1ccncc1)N2` (stereo not drawn) [Compound 1c], in the data set with MCF-7 cell line, the CC50 was 70.1 ± 0.05 µg/mL (≈ 176 µM) and the “SI (Selectivity index = LC50 value normal cell/LC50 value cancer cell)” value is 1.05.

As to `Cc1nn(-c2ccccc2)c2c1C(c1ccc([N+](=O)[O-])cc1)N(C(=O)c1ccncc1)N2` (stereo not drawn) [Compound 1d], in the data set with MCF-7 cell line, the CC50 was 91.1 ± 0.06 µg/mL (≈ 214 µM) and the “SI (Selectivity index = LC50 value normal cell/LC50 value cancer cell)” value was 0.91.

With `COc1ccc(C2c3c(C)nn(-c4ccccc4)c3NN2C(=O)c2ccncc2)cc1` (stereo not drawn) [Compound 1e], in the data set with MCF-7 cell line, the CC50 worked out at 23.62 ± 0.02 µg/mL (≈ 57.4 µM) and the “SI (Selectivity index = LC50 value normal cell/LC50 value cancer cell)” value turned out to be 3.36.

With `Cc1nn(-c2ccccc2)c2c1C(c1ccc(N(C)C)cc1)N(C(=O)c1ccncc1)N2` (stereo not drawn) [Compound 1f], in the data set on MCF-7 cell line, the CC50 was 19.92 ± 0.01 µg/mL (≈ 46.9 µM) and the “SI (Selectivity index = LC50 value normal cell/LC50 value cancer cell)” value was 4.12.

With `CC(C)=CCCC(C)=CC1c2c(C)nn(-c3ccccc3)c2NN1C(=O)c1ccncc1` (stereo not drawn) [Compound 1g], the CC50 with MCF-7 cell line came to 30.82 ± 0.04 µg/mL (≈ 72.1 µM).

Turning to `Cc1nn(-c2ccccc2)c2c1C(c1c[nH]c3ccccc13)N(C(=O)c1ccncc1)N2` (stereo not drawn) [Compound 1h], in the data set on MCF-7 cell line, the CC50 worked out at 21.43 ± 0.03 µg/mL (≈ 51 µM).

As for `Cc1nn(-c2ccccc2)c2c1C(c1ccco1)N(C(=O)c1ccncc1)N2` (stereo not drawn) [Compound 1i], the CC50 in the data set on MCF-7 cell line was 26.66 ± 0.05 µg/mL (≈ 71.8 µM).

Consider `Cc1nn(-c2ccccc2)c2c1C(c1ccccn1)N(C(=O)c1ccncc1)N2` (stereo not drawn) [Compound 1j], for which, in the data set with MCF-7 cell line, the CC50 stood at 57.34 ± 0.08 µg/mL (≈ 150 µM) and the “SI (Selectivity index = LC50 value normal cell/LC50 value cancer cell)” value is 1.45.

In the case of `Cc1nn(-c2ccccc2)c2c1C(c1cncs1)N(C(=O)c1ccncc1)N2` (stereo not drawn) [Compound 1k], in the data set on MCF-7 cell line, the CC50 was 62.34 ± 0.07 µg/mL (≈ 160 µM) and the “SI (Selectivity index = LC50 value normal cell/LC50 value cancer cell)” value turned out to be 1.25.

On to `COc1cccc2c1C(=O)c1c(O)c3c(c(O)c1C2=O)C[C@@](O)(C(=O)CO)C[C@@H]3O[C@H]1C[C@H](N)[C@H](O)[C@H](C)O1` [Doxorubicin, doxorubicin, reference compound], for which, in the data set on MCF-7 cell line, the CC50 amounted to 0.65 ± 0.01 µg/mL (≈ 1.2 µM) and the “SI (Selectivity index = LC50 value normal cell/LC50 value cancer cell)” value was found to be 32.38.

In the case of “(3-(4-chlorophenyl)-4-methyl-6-phenyl pyrazolo[3,4-c]pyrazol-2(1H,3H,6H)-yl)(pyridin-4-yl)methanone [Compound 1a]”, the “LC50, MCF-7 cell line” value in the data set on MCF-7 cell line (MCF-7, MTT, mean ± standard error of three experiments) is 78.10 ± 0.02 µg/mL. Further, the “LC50, Vero” value in the data set on normal Vero cell line was 55.02 ± 0.11 µg/mL.
